In patent US20100092456A1, “METHODS OF TREATMENT” (priority 2006, published 2010):

Columns and labels:
[1] = test system: nuclear PtdIns4P and PtdIns5P in differentiated MEL cells; test: Mass assay of nuclear PtdIns4P and PtdIns5P in differentiated MEL cells; assay type: cell-based, Murine; conditions: NAC 5 mM or BSO 100 μM for 4 hours, H2O2 500 μM for 15 minutes, vs control-treated cells
Procedure: B) Differentiated MEL cells were treated with NAC (5 mM) or BSO (100 μM), each for 4 hours, or H2O2 (500 μM) for 15 minutes prior to the isolation of intact nuclei. A mass assay was used to determine the levels of PtdIns4P and PtdIns5P. The results are expressed as % of control-treated differentiated MEL cells and are calculated from 3 independent experiments.
MEL, HEK 293 and HT1080 cells were maintained in routine culture using 10% FCS in DMEM. When required, differentiated MEL cells were prepared by the addition of 1.5% DMSO to the culture medium for a period of 4 days. MEL cells were transfected using Effectene (Qiagen), HEK 293 cells with calcium phosphate and HT1080 with LT1 (Mirus corporation). The following plasmids were used: pEGFP, pCDNA3 (both from Clontech), pCDNA3-Flag-MKK6+ and pCDNA3-Flag-MKK6-(from Dr. M. Schmidt, The Netherlands Cancer Institute), pSuper (from Dr. R. Agami, The Netherlands Cancer Institute), pCDNA3-EGFP-IpgD/IpgE, pCDNA3-EGFP-PIP kinase typeIIβ, and RNAi for type II β PIP kinase (termed pSuper-IIβRNAi). The targeting sequence for the latter was […]. Irradiation of the cells with 254 nm UV-C light (0-200 J/m) or gamma rays (0-40 Gy, from a Cesium 137 source) was performed using 6-well or 10 cm plastic petri dishes with a depth of medium covering the cells not exceeding 3-4 mm. Thereafter, the cells were returned to normal culture conditions for 30 minutes before subcellular fractionation was started. To determine long terms effects of UV and gamma irradiation the cells were returned to normal culture conditions for up to 48 hours.
MEL cells were washed, twice in ice cold PBS before their fractionation using a detergent-free hypotonic buffer. This method yields a mixed cytosol and membrane fraction and intact nuclei after separation using a sucrose cushion. MEL cell nuclei were fractionated into nucleoplasm and the CEF using modifications of a previously published method. Briefly, intact MEL cell nuclei were resuspended in ice cold hypotonic buffer (3 mM EDTA, 0.2 mM EGTA and 1 mM DTT pH 7.85, with protease inhibitors) followed by forced passage (12 times) through a 25 gauge needle. After centrifugation (1700 g) the supernatant (the nucleoplasm) was saved. The pellet (CEF) was washed twice before resuspending by sonication in 10 mM TrisHCl, 10% sucrose, 10 mM MgCl2 pH 7.4, with protease inhibitors. The protein content of all fractions was determined using the Bradford reagent (BioRad). PtdIns4P and PtdIns5P were measured using in vitro mass assays employing recombinant type I and type II PIP kinases, respectively. The product PtdIns(4,5)P2 was separated by TLC. The amount of radioactivity found in PtdIns(4,5)P2 was proportional to the amount of PtdInsP isomer in the neomycin affinity-purified lipid extract.
However, no studies have determined a role for nuclear phosphoinositides or defined downstream protein targets mediating phosphoinositide-stress activated pathways. To study changes in nuclear phosphoinositides in response to cellular stress, we used Murine erythroleukaemia (MEL) cells as a model system because preparations of nuclei from these cells have been proven to be of high purity. To visualise changes in phosphoinositides, various independent methods were used. The mass level of both PtdIns4P and PtdIns5P were measured using an assay that relies on the differential in vitro specificities of type I and type II PIP kinases. […] Gamma irradiation (10 Gy) led to a small (approximately 20%) decrease in the PtdIns4P level but no detectable change in the level of PtdIns5P in whole nuclei (FIG. 1a). To determine if nuclear PtdInsPs were regulated by oxidative stress we treated differentiated MEL cells with H2O2, BSO (L-buthionine[S,R]-sulphoximine, a glutamyl-cysteine synthetase inhibitor, which increases intracellular reactive oxygen species (ROS)) or NAC. (N-acetyl-cysteine, which increases cellular glutathione levels and cell' capability to deal with ROS). […]

[2] = biological target: T1, PIP 5-K (Mus musculus, UniProt P70181); test: Localisation of GFP PIP 5-K in HeLa cells by confocal laser scanning microscopy; assay type: cell-based; conditions: 600 microMolar, away from the plasma membrane
T1 construct: expressed in transfected cells; host or cells: HeLa cells
Procedure: Panel A: HeLa cell were transiently transfected with expression plasmids encoding for a GFP fusion protein of PIP 5-K. In healthy cells GFP PIP 5-K is located at the plasma membrane. Cells were then treated with 600 microMolar H2O2 and the localisation of the GFP PIP 5-K was monitored on line using confocal laser scanning microscopy.
HeLa cells were transiently transfected with expression plasmids encoding for a GFP fusion protein of PIP 5-K. In healthy cells GFP PIP 5-K is located at the plasma membrane. Cells were then treated with 600 microMolar H2O2 and the localisation of the GFP PIP 5-K was monitored on line using confocal laser scanning microscopy. […] H2O2 regulates the localisation of the enzyme in vivo. (FIG. 12, panel A)

[3] = biological target: T1, PIP 5-K; test: In vitro activity of recombinant PIP 5-K (radioactive ATP, TLC); assay type: biochemical; conditions: apoptotic concentrations of H2O2; Cysteine 175 to serine mutant is not sensitive
Procedure: (§1) Panel B: Recombinant wild type PIP 5-K and a point mutation of PIP 5-K—(cysteine 175 altered to a serine residue) were both treated with H2O2 and enzyme activity was assayed in vitro by measuring the amount of product that is produced after incubation with substrate and radioactive ATP. The products were then analysed on TLC plate using phosphoimager.
as §1, with “Recombinant” for “Panel B: Recombinant”, “5-K-(cysteine” for “5-K—(cysteine”, “phosphoimager. […] (FIG. 12, panel B).” for “phosphoimager.”

[4] = test system: HeLa cells; test: Apoptosis of HeLa cells by nuclear morphology; assay type: cell-based; conditions: 600 microMolar, 24 hours
Procedure: HeLa cell were transiently transfected with expression plasmids encoding for the listed proteins. Cell were then treated with 600 microMolar H2O2 for 24 hours. All cells were collected and examined for apoptosis (Example 5).
The inventors have shown that type I PIP kinase protects cells from ROS induced apoptosis. HeLa cells were transiently transfected with expression plasmids encoding for the listed proteins. Cells were then treated with 600 microMolar H2O2 for 24 hours. All cells were collected and examined for apoptosis. Apoptosis was determined by examining nuclear morphology of green cells (GFP Histone) after staining with a nuclear stain. Cells with fragmented nuclei were scored positive for apoptosis. […] Ectopic expression of PIP 5-K protects HeLa cells from apoptosis after H2O2 treatment. Results are in FIG. 11.

T1 sequence (P70181 whole entry): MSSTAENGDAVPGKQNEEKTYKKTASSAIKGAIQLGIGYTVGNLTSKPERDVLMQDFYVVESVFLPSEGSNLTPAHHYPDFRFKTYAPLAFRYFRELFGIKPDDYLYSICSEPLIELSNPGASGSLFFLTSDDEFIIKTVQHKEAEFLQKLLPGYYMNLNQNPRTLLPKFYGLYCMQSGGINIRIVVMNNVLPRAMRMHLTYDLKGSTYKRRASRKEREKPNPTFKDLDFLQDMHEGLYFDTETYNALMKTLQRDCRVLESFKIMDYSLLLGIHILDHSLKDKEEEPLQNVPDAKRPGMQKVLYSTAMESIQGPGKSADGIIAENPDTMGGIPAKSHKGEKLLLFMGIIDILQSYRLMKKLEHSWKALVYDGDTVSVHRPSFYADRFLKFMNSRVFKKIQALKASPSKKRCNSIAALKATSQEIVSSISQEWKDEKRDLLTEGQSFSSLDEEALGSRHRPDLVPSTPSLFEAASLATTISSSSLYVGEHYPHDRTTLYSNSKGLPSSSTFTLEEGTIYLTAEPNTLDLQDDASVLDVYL

OO [H2O2]
level of nuclear PtdIns4P [1]: increased
level of nuclear PtdIns5P [1]: increased
localisation of GFP PIP 5-K [2]: induces translocation
activity of recombinant wild type PIP 5-K after treatment [3]: sensitive
apoptosis (fragmented nuclei) [4]: induces apoptosis
